Each structure is given as a SMILES string. Where two headings read alike, the source gives them in different places.

These results are taken from US20230226041A1, “COMPOUNDS FOR THE TREATMENT OF VIRAL INFECTIONS” (Merck Patent GmbH, priority 2020, published 2023).

This test deals with SARS-CoV2/ZG/297-20. In kind it is cell-based. The following applies: Calu-3 cells infected with SARS-CoV-2, MOI 0.05, observed for 120 hours, level about equal to uninfected cells.

Regarding `COc1cc2ncc3c(c2cc1-c1cnn(C)c1)n(-c1ccc(C#N)cc1F)c(=O)n3C` [NCE16, 3-fluoro-4-[7-methoxy-3-methyl-8-(1-methyl-1H-pyrazol-4-yl)-2-oxo-2,3-dihydro-imidazo[4,5-c]quinolin-1-yl]-benzonitrile], the “confluence of Calu-3 cells as compared to the infected cells” value (concentrations between 16 and 81 μM, FIG. 2) is “significant retainment or improvement of the confluence of the cells”.

Take `COc1cc2ncc3c(c2cc1-c1cn(C)nc1C)n(-c1c(F)cncc1OC)c(=O)n3C` (atropisomer, axis not shown; (Sa)) [NCE4, 8-(1,3-dimethyl-1H-pyrazol-4-yl)-1-(Sa)-(3-fluoro-5-methoxy-pyridin-4-yl)-7-methoxy-3-methyl-1,3-dihydro-imidazo[4,5-c]quinolin-2-one]: the “confluence of Calu-3 cells as compared to the infected cells” value (concentrations between 4 and 27 μM, FIG. 1) was “significant retainment or improvement of the confluence of the cells”.
